Drawing on patent US20240254139A1, “FUSED ISOXAZOLYL COMPOUNDS AS KAT6A INHIBITORS” (Aurigene Oncology Limited, priority 2021, published 2024), this text covers inhibition and IC50 for seven compounds.

This assay addresses T1, human-KAT6A (MYST domain 507-778 aa) (Homo sapiens, UniProt Q92794).
T1 construct: human-KAT6A (MYST domain 507-778 aa)
Description: KAT6A biochemical assay (TR-FRET). Conditions: for inhibition at 1 µM: compound at 1 μM, percent inhibition of internal assay controls; for IC50: dose-response, sigmoidal curve fit, groups A, B, C. From the text:
A TR-FRET based method was used for assaying compounds of the invention for KAT6A enzyme inhibitory activity. TR-FRET is homogeneous proximity assay where Europium-labelled anti-acetyl lysine antibody binds to the acetylated substrate labelled with biotin which in turn binds to streptavidin labelled APC fluorescence acceptor. Europium can transfer energy to APC in the complex and the interaction of two dye-labelled binding partners is detected by the energy transfer between a donor and an acceptor dye, and the subsequent light emission by the acceptor dye. KAT6A transfer an acetyl group from acetyl CoA to lysine amino acids of histones/target proteins. Typically, 5 μL of human-KAT6A (MYST domain 507-778 aa) in assay buffer (100 mM Tris HCl (pH 7.8), 15 mM NaCl, 1 mM EDTA, 0.01% Tween-20, 0.02% BSA, 1 mM DTT) is added to a 384-well plate containing 5 μL of selected test compound in final 1% DMSO, serially diluted in 1:3 in an 8-10-point titration. The selected compound of the present invention and enzyme are incubated for 30 min at room temperature. Next, 5 μL of substrate mix containing histone H4 peptide and acetyl-CoA in assay buffer is added to the plate. The final concentrations of H4 peptide and acetyl-CoA are 200 nM and 600 nM respectively. Following 30 min reaction at room temperature, 5 μL of detection mix containing Europium labelled anti-acetyl antibody and streptavidin-APC is added to the reaction wells. Plate is further incubated for 45 min at room temperature and is read in TR-FRET mode (Ex: 340 nm; Em: 615 nm and 665 nm) on a plate reader.
Selected compounds of the present invention were screened in the above-mentioned assay procedure and IC50 values were determined by fitting the dose-response data to sigmoidal curve fitting equation using Graph pad prism software V8. […]
(In general: In TR-FRET formats the signal depends on donor and acceptor labels being close together.)

Where only a bound is given, the exact number is not on record here.

T1 sequence (Q92794 507-778): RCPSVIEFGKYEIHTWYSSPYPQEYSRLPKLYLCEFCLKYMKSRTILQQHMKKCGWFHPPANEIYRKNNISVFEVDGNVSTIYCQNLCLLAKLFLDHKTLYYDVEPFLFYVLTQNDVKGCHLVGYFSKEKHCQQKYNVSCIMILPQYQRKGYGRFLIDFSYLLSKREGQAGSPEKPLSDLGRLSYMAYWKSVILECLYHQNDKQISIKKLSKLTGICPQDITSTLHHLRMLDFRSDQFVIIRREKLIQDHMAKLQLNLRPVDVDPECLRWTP

Consider `COc1ccccc1-c1cc(OC)c2c(NS(=O)(=O)c3c(OC)cccc3OC)noc2n1` [Compound 10, 2,6-dimethoxy-N-(4-methoxy-6-(2-methoxyphenyl)isoxazolo[5,4-b]pyridin-3-yl)benzenesulfonamide], for which at 1 µM the inhibition was 100% and the 50% inhibitory concentration (IC50) (as a rule, the point on the concentration scale where inhibition reaches its midpoint) is < 100 nM.

With `COc1cccc(OC)c1S(=O)(=O)Nc1noc2nc(-c3ccsc3)cc(OC)c12` [Compound 31, 2,6-dimethoxy-N-(4-methoxy-6-(thiophen-3-yl)isoxazolo[5,4-b]pyridin-3-yl)benzenesulfonamide], the 50% inhibitory concentration (IC50) is < 100 nM.

As to `CNc1cc(OC)c2c(NS(=O)(=O)c3c(OC)cccc3OC)noc2n1` [Compound 37, 2,6-dimethoxy-N-(4-methoxy-6-(methylamino)isoxazolo[5,4-b]pyridin-3-yl)benzenesulfonamide], the inhibition (as a rule, the change of the read-out against control, counted positive when it falls) at 1 µM stood at 34%.

As for `COc1cccc(OC)c1S(=O)(=O)Nc1noc2nc(N3CCOCC3)cc(OC)c12` [Compound 14, 2,6-dimethoxy-N-(4-methoxy-6-morpholinoisoxazolo[5,4-b]pyridin-3-yl)benzenesulfonamide], testing at 1 µM gave an inhibition of 49%.

Regarding `COc1cccc(OC)c1S(=O)(=O)Nc1noc2nc(-c3ccccc3)cc(OC)c12` [Compound 1, 2,6-dimethoxy-N-(4-methoxy-6-phenylisoxazolo[5,4-b]pyridin-3-yl)benzenesulfonamide], at 1 µM the inhibition was 100% and the IC50 was < 100 nM.

For the compound `COc1cc(C(C)(C)C)ccc1S(=O)(=O)Nc1noc2nc(-c3ccccc3)cc(OC)c12` [Compound 34, 4-(tert-butyl)-2-methoxy-N-(4-methoxy-6-phenylisoxazolo[5,4-b]pyridin-3-yl)benzenesulfonamide], the IC50 is > 200 nM. Also, the inhibition at 10 µM (compound at 10 μM (stated in the cell), read-out: Percent Inhibition (at 10 μM)) turned out to be 100%.

Compound `COc1cccc(OC)c1S(=O)(=O)Nc1noc2cc(-c3ccccc3)ncc12` [Compound 11, 2,6-dimethoxy-N-(6-phenylisoxazolo[4,5-c]pyridin-3-yl)benzenesulfonamide] had an inhibition at 1 µM of 12%.
